Where two headings read alike, the source gives them in different places. Where a SMILES comes first, the peptide text is derived from it. Bridges are numbered along the chain shown (N, C = ends). Where no end group is shown, it is not given here. [ ]: non-standard residue; d: D form. Bip = N[C@@H](Cc1ccc(-c2ccccc2)cc1)C(=O)O
What was measured:
mMC1R [1] = target: T1, mMC1R (Mus musculus, UniProt Q01727); details: read-out: mMC1R Agonist EC50; previously reported values; cited from earlier work
mMC4R [2] = target: T2, mMC4R (Mus musculus, UniProt P56450); details: cited from earlier work; for Ki: read-out: mMC4R Ki, Ki=10^-pA2, previously reported values
mMC5R = mMC5R (Mus musculus, UniProt P41149); details: read-out: mMC5R Agonist EC50; previously reported values; cited from earlier work
Sequence of mMC5R (P41149 whole entry): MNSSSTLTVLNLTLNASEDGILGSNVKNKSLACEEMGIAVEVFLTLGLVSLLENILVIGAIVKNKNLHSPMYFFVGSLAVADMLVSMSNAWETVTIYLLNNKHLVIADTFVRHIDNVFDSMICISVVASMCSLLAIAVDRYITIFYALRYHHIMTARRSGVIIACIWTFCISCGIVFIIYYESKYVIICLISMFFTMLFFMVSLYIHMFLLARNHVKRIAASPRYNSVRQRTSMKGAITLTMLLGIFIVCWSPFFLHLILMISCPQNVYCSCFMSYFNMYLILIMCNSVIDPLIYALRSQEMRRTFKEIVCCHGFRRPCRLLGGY

mMC4R [3] = target: T2, mMC4R; type: cell-based
mMC1R [4] = target: T1, mMC1R; test: cAMP based β-galactosidase reporter assay, agonist activity at mMC1R; type: cell-based
mMC3R [5] = target: T3, mMC3R (Mus musculus, UniProt P33033); type: cell-based
mMC3R (Mus musculus) = mMC3R (Mus musculus) (UniProt P33033); test: Schild analysis; details: cited from earlier work
mMC4R (Mus musculus) = mMC4R (Mus musculus) (UniProt P56450); test: Schild analysis; details: cited from earlier work
mMC3R [6] = target: T3, mMC3R; details: cited from earlier work
mMC4R [7] = target: T4, mMC4R (Mus musculus, UniProt P56450); test: Schild analysis
T4 chain: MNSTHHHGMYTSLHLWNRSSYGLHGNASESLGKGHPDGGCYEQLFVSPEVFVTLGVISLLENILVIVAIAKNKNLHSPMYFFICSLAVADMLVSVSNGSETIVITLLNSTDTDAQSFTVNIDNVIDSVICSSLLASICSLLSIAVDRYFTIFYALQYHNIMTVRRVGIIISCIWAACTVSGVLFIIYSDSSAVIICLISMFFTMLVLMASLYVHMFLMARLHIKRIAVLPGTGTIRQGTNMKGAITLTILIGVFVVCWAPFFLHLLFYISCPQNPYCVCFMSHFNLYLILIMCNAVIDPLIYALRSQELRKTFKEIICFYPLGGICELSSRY

mMC3R [8] = target: T5, mMC3R (Mus musculus, UniProt P33033); test: Schild analysis
T5 chain: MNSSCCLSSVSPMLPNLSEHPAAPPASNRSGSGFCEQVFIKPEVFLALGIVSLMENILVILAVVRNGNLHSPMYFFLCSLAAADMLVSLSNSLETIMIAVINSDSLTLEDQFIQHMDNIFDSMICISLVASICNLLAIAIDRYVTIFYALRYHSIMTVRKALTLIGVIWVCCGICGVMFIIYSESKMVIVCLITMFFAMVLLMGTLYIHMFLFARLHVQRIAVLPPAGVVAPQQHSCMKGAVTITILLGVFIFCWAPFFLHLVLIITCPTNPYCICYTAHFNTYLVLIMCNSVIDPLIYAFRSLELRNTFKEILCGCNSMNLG

T1 sequence (Q01727 whole entry): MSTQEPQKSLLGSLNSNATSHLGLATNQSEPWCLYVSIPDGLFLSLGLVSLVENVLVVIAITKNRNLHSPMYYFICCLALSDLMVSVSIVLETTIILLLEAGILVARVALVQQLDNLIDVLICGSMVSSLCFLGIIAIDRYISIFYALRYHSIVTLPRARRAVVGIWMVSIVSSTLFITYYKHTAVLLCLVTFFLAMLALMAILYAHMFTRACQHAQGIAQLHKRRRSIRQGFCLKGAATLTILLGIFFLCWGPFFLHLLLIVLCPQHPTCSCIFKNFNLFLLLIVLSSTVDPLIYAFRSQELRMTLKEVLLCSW

Molecule: Tyr-c[Cys-Arg-Phe-Phe-Asn-Ala-Phe-Cys]-Tyr (YCRFFNAFCY; bridge 2-9; not fully specified (bridges)) [hAGRP (109-118)]
- EC50 (mMC1R [1]): 5100 ± 3000 nM
- Ki (mMC4R [2]): 160 nM
- EC50 (mMC5R): > 100000 nM

Molecule: miniAGRP (87-120): engineered minimized derivative of AGRP(87-132) with 4 disulfide bonds and the C-terminal 12 residues removed (CVRLHESCLGQQVPCCDPAATCYCRFFNAFCYCR)
- EC50 (mMC1R [1]): > 100000 nM
- EC50 (mMC5R): > 100000 nM

Molecule: C[C@@H]1NC(=O)[C@H](CCCCN)NC(=O)[C@H](Cc2ccccc2)NC(=O)[C@H](Cc2ccccc2)NC(=O)[C@H](CCCNC(=N)N)NC(=O)[C@@H]2CCCN2C(=O)[C@H]2CCCN2C(=O)[C@H](Cc2ccccc2)NC1=O [Peptide 25, c[Pro-Arg-Phe-Phe-Lys-Ala-Phe-DPro]]
- fold increased antagonist potency at the mMC4R compared to 6 (mMC4R [3]): 4 fold

Molecule: C[C@@H]1NC(=O)[C@H](CC(N)=O)NC(=O)[C@H](c2ccccc2)NC(=O)[C@H](Cc2ccccc2)NC(=O)[C@H](CCCNC(=N)N)NC(=O)[C@@H]2CCCN2C(=O)[C@H]2CCCN2C(=O)[C@H](Cc2ccccc2)NC1=O [Peptide 16, c[Pro-Arg-Phe-Phg-Asn-Ala-Phe-DPro]]
- fold decreased potency at the mMC1R compared to 6 (mMC1R [4]): 4 fold
- no activity at the mMC3R up to (concentration) (mMC3R [5]): > 100 µM
- fold decreased antagonist potency at the mMC4R compared to 6 (mMC4R [3]): 65 fold

Molecule: C[C@@H]1NC(=O)[C@H](CC(N)=O)NC(=O)[C@H](Cc2ccccc2)NC(=O)[C@H](Cc2ccc(-c3ccccc3)cc2)NC(=O)[C@H](CCCNC(=N)N)NC(=O)[C@@H]2CCCN2C(=O)[C@H]2CCCN2C(=O)[C@H](Cc2ccccc2)NC1=O [Peptide 7, c[Pro-Arg-Bip-Phe-Asn-Ala-Phe-DPro]] (cyclo(R[Bip]FNAF[dP]P))
- fold more potent agonist at the mMC1R compared to 6 (mMC1R [4]): 5 fold
- fold decreased antagonist potency at the mMC4R compared to 6 (mMC4R [3]): 8 fold

Molecule: C[C@@H]1NC(=O)[C@H](CC(N)=O)NC(=O)[C@@H]2Cc3ccccc3CN2C(=O)[C@H](Cc2ccccc2)NC(=O)[C@H](CCCNC(=N)N)NC(=O)[C@@H]2CCCN2C(=O)[C@H]2CCCN2C(=O)[C@H](Cc2ccccc2)NC1=O [Peptide 15, c[Pro-Arg-Phe-Tic-Asn-Ala-Phe-DPro]]
- no activity at the mMC3R up to (concentration) (mMC3R [5]): > 100 µM
- no activity at the mMC4R up to (concentration) (mMC4R [3]): > 100 µM

Molecule: C[C@@H]1NC(=O)[C@H](CC(N)=O)NC(=O)[C@H](Cc2ccc(-c3ccccc3)cc2)NC(=O)[C@H](Cc2ccccc2)NC(=O)[C@H](CCCNC(=N)N)NC(=O)[C@@H]2CCCN2C(=O)[C@H]2CCCN2C(=O)[C@H](Cc2ccccc2)NC1=O [Peptide 14, c[Pro-Arg-Phe-Bip-Asn-Ala-Phe-DPro]]
- fold more potent agonist at the mMC1R compared to 6 (mMC1R [4]): 10 fold
- no activity at the mMC3R up to (concentration) (mMC3R [5]): > 100 µM
- fold decreased antagonist potency at the mMC4R compared to 6 (mMC4R [3]): 8 fold

Molecule: hAGRP(87-132) 87-132 (from UniProt O00253)
- Ki (mMC3R (Mus musculus)): 1.3 nM
- Ki (mMC4R (Mus musculus)): 0.4 nM

Molecule: C[C@@H]1NC(=O)[C@H](CC(N)=O)NC(=O)[C@H](Cc2ccccc2)NC(=O)[C@H](Cc2ccc3ccccc3c2)NC(=O)[C@H](CCCNC(=N)N)NC(=O)[C@@H]2CCCN2C(=O)[C@H]2CCCN2C(=O)[C@H](Cc2ccccc2)NC1=O [Peptide 13, c [Pro-Arg-Nal(2′)-Phe-Asn-Ala-Phe-DPro]]
- fold decreased antagonist potency at the mMC4R compared to 6 (mMC4R [3]): 5 fold

Molecule: C[C@@H]1NC(=O)[C@H](CC(N)=O)NC(=O)[C@H](Cc2ccc3ccccc3c2)NC(=O)[C@H](Cc2ccccc2)NC(=O)[C@H](CCCNC(=N)N)NC(=O)[C@@H]2CCCN2C(=O)[C@H]2CCCN2C(=O)[C@H](Cc2ccccc2)NC1=O [Peptide 20, c[Pro-Arg-Phe-Nal(2′)-Asn-Ala-Phe-DPro]]
- no activity at the mMC3R up to (concentration) (mMC3R [5]): > 100 µM

Molecule: C[C@@H]1NC(=O)[C@H](CC(N)=O)NC(=O)[C@H](Cc2ccccc2)NC(=O)[C@@H]2Cc3ccccc3CN2C(=O)[C@H](CCCNC(=N)N)NC(=O)[C@@H]2CCCN2C(=O)[C@H]2CCCN2C(=O)[C@H](Cc2ccccc2)NC1=O [Peptide 8, c[Pro-Arg-Tic-Phe-Asn-Ala-Phe-DPro]]
- no activity at the mMC3R up to (concentration) (mMC3R [5]): > 100 µM
- no activity at the mMC4R up to (concentration) (mMC4R [3]): > 100 µM

Molecule: miniAGRP(87-120) 87-120 (from UniProt O00253)
- Ki (mMC3R (Mus musculus)): 7.9 nM
- Ki (mMC4R (Mus musculus)): 3.2 nM

Molecule: YCRFFNAFCY (disulfide 2-9) [hAGRP (109-118)]
- mMC4R antagonist pA2 (mMC4R [2]): 6.8
- mMC4R antagonist pA2 (mMC4R [2]; previously reported values): 6.8±0.2

Molecule: TAYCRFFNAFCYAR-NH2 (disulfide 4-11) [hAGRP(107-120)]
- mMC3R antagonist pA2 (mMC3R [6]): 6.1
- mMC4R antagonist pA2 (mMC4R [2]): 6.6

Molecule: C[C@@H]1NC(=O)CNC(=O)[C@H](Cc2ccccc2)NC(=O)[C@H](Cc2ccccc2)NC(=O)[C@H](CCCNC(=N)N)NC(=O)[C@@H]2CCCN2C(=O)[C@H]2CCCN2C(=O)[C@H](Cc2ccccc2)NC1=O [Peptide 21, c[Pro-Arg-Phe-Phe-Gly-Ala-Phe-DPro]]
- fold increased antagonist potency at the mMC3R compared to 6 (mMC3R [5]; compared to 6): 16 fold
- fold increased antagonist potency at the mMC4R compared to 6 (mMC4R [3]): 5 fold

Molecule: hAGRP (87–132): C-terminal domain of human Agouti-related protein, stabilized by five disulfide bonds
- EC50 (mMC1R [1]): > 100000 nM
- mMC3R antagonist pA2 (mMC3R [6]): 8.9
- mMC3R antagonist pA2 (mMC3R [6]; previously reported values): 8.9±0.2
- mMC4R antagonist pA2 (mMC4R [2]): 9.4
- mMC4R antagonist pA2 (mMC4R [2]; previously reported values): 9.4±1.0
- Ki (mMC4R [2]): 0.4 nM
- EC50 (mMC5R): > 100000 nM

Molecule: C[C@@H]1NC(=O)[C@H](CC(N)=O)NC(=O)[C@H](Cc2ccccc2)NC(=O)[C@H](CCc2ccccc2)NC(=O)[C@H](CCCNC(=N)N)NC(=O)[C@@H]2CCCN2C(=O)[C@H]2CCCN2C(=O)[C@H](Cc2ccccc2)NC1=O [Peptide 10, c[Pro-Arg-hPhe-Phe-Asn-Ala-Phe-DPro]]
- fold decreased antagonist potency at the mMC4R compared to 6 (mMC4R [3]): 5 fold

Molecule: hAGRP(109-118)
- Ki (mMC4R (Mus musculus)): 160 nM

Molecule: C[C@@H]1NC(=O)[C@H](CCCNC(=N)N)NC(=O)[C@H](Cc2ccccc2)NC(=O)[C@H](Cc2ccccc2)NC(=O)[C@H](CCCNC(=N)N)NC(=O)[C@@H]2CCCN2C(=O)[C@H]2CCCN2C(=O)[C@H](Cc2ccccc2)NC1=O [Peptide 26, c[Pro-Arg-Phe-Phe-Arg-Ala-Phe-DPro]] (cyclo(RFFRAF[dP]P))
- fold increased antagonist potency at the mMC4R compared to 6 (mMC4R [3]): 5 fold

Molecule: C[C@@H]1NC(=O)[C@H](CC(N)=O)NC(=O)[C@H](Cc2cccc3ccccc23)NC(=O)[C@H](Cc2ccccc2)NC(=O)[C@H](CCCNC(=N)N)NC(=O)[C@@H]2CCCN2C(=O)[C@H]2CCCN2C(=O)[C@H](Cc2ccccc2)NC1=O [Peptide 19, c[Pro-Arg-Phe-Nal(1′)-Asn-Ala-Phe-DPro]]
- fold decreased antagonist potency at the mMC3R compared to 6 (mMC3R [5]; compared to 6): 6 fold

Molecule: cyclo(PRFFKAF[dP]) [peptide 25]
- Ki (mMC4R [7]): 5 nM
- Ki (mMC3R [8]): 100 nM

Molecule: cyclo(PRFFGAF[dP]) [peptide 21]
- Ki (mMC4R [7]): 4 nM

Molecule: cyclo(PRFFRAF[dP]) [peptide 26]
- Ki (mMC4R [7]): 4 nM
- Ki (mMC3R [8]): 200 nM

B1: peptide 5 (peptide)
chain: cyclo(PYTRFFNAFTY[dP])
SMILES: C[C@@H]1NC(=O)[C@H](CC(N)=O)NC(=O)[C@H](Cc2ccccc2)NC(=O)[C@H](Cc2ccccc2)NC(=O)[C@H](CCCNC(=N)N)NC(=O)[C@H]([C@@H](C)O)NC(=O)[C@H](Cc2ccc(O)cc2)NC(=O)[C@@H]2CCCN2C(=O)[C@H]2CCCN2C(=O)[C@H](Cc2ccc(O)cc2)NC(=O)[C@H]([C@@H](C)O)NC(=O)[C@H](Cc2ccccc2)NC1=O
- Ki (mMC3R [8]): 1300 nM

Source: paper PMC5672791 (Journal of medicinal chemistry, 2015)
